# Values of other authors in US12396997B2, “Methods of treatment with an iboga alkaloid” (priority 2022, dated 2025).
# Test system: N-methyl-D-aspartate, kappa and mu opioid, sigma-1 and -2, nicotinic acetylcholine, serotonin transporter, and dopamine transporter
# Conditions: literature; cited from earlier work
smiles,measurement,value
CC[C@H]1CC2C[C@H]3c4[nH]c5ccc(O)cc5c4CCN(C2)C13 [noribogaine],Affinity for neurotransmitter receptors,moderate-to-weak affinity
